Experiments:
Type in all cases: functional, cell-based
HT-29 [1] = assay: Inhibitory activity against HT-29 human colon carcinoma cells containing P1-1 GST for treatment time of 120 min.; details: HT-29, 2 h
HT-29 [2] = assay: Inhibitory activity against HT-29 human colon carcinoma cells containing P1-1 GST for treatment time of 60 min.; details: HT-29, 1 h
MCF7 [3] = assay: Inhibitory activity against MCF-7 pi cells containing P1-1 GST for treatment time of 120 min.; details: Homo sapiens, MCF7, 2 h
MCF7 [4] = assay: Inhibitory activity against MCF-7 neo cells […] for treatment time of 120 min.; details: Homo sapiens, MCF7, 2 h

Row | SMILES | IC50 (HT-29 [1]) | IC50 (HT-29 [2]) | IC50 (MCF7 [3]) | IC50 (MCF7 [4])
1 | NC(CCC(=O)NC(CS(=O)(=O)CCOP(=O)(N(CCCl)CCCl)N(CCCl)CCCl)C(=O)NCC(=O)O)C(=O)O (stereo not drawn) | 68.9 µM | 84.7 µM | 20.9 µM | 40.2 µM
2 | NC(CCC(=O)NC(CS(=O)(=O)CCOP(=O)(N(CCCl)CCCl)N(CCCl)CCCl)C(=O)NC(C(=O)O)c1ccccc1)C(=O)O (stereo not drawn) | 80.3 µM | 170 µM | 9.5 µM | 37.5 µM

— ChEMBL document CHEMBL1127513, “Glutathione-S-transferase activates novel alkylating agents” (J Med Chem, 1994)
